From the NIST ThermoML archive (doi:10.1016/j.jct.2010.08.019)

Assay: xn = mol fraction of the nth substance listed
Settings: for surface tension liquid-gas: Wilhelmy-plate method; for viscosity / mass density: 101 kPa, Liquid; for viscosity: Falling or rolling sphere viscometry; for mass density: Vibrating tube method

C1CCOCC1 [tetrahydropyran] + CC(C)O
Settings | mass density [kg/m3] | surface tension liquid-gas [mN/m] | viscosity [mPa·s]
293.15 K, x2 = 0 | 884.27 | 27.5 | 0.86
293.15 K, x2 = 0.0501 | 879.89 | 27.2 | 0.852
293.15 K, x2 = 0.0999 | 875.5 | 26.9 | 0.845
293.15 K, x2 = 0.1499 | 871.09 | 26.6 | 0.849
293.15 K, x2 = 0.2003 | 866.62 | 26.3 | 0.85
293.15 K, x2 = 0.2506 | 862.13 | 26 | 0.855
293.15 K, x2 = 0.2999 | 857.7 | 25.7 | 0.864
293.15 K, x2 = 0.35 | 853.13 | 25.4 | 0.877
293.15 K, x2 = 0.3999 | 848.52 | 25 | 0.899
293.15 K, x2 = 0.4499 | 843.87 | 24.7 | 0.922
293.15 K, x2 = 0.5001 | 839.07 | 24.4 | 0.947
293.15 K, x2 = 0.5502 | 834.22 | 24 | 0.983
293.15 K, x2 = 0.6001 | 829.28 | 23.7 | 1.032
293.15 K, x2 = 0.6499 | 824.23 | 23.4 | 1.095
293.15 K, x2 = 0.7001 | 819.03 | 23.1 | 1.164
293.15 K, x2 = 0.7499 | 813.78 | 22.7 | 1.256
293.15 K, x2 = 0.8 | 808.34 | 22.4 | 1.378
293.15 K, x2 = 0.8501 | 802.8 | 22.1 | 1.535
293.15 K, x2 = 0.9001 | 797.15 | 21.9 | 1.739
293.15 K, x2 = 0.9499 | 791.36 | 21.6 | 2.013
303.15 K, x2 = 0 | 874.07 | 26.2 | 0.749
303.15 K, x2 = 0.0502 | 869.6 | 26 | 0.737
303.15 K, x2 = 0.1001 | 865.24 | 25.7 | 0.729
303.15 K, x2 = 0.1501 | 860.87 | 25.4 | 0.728
303.15 K, x2 = 0.1998 | 856.52 | 25.1 | 0.725
303.15 K, x2 = 0.2499 | 852.09 | 24.8 | 0.729
303.15 K, x2 = 0.3 | 847.66 | 24.5 | 0.737
303.15 K, x2 = 0.3499 | 843.17 | 24.2 | 0.75
303.15 K, x2 = 0.4001 | 838.59 | 23.9 | 0.76
303.15 K, x2 = 0.4501 | 833.98 | 23.6 | 0.779
303.15 K, x2 = 0.5001 | 829.29 | 23.3 | 0.8
303.15 K, x2 = 0.55 | 824.54 | 22.9 | 0.825
303.15 K, x2 = 0.6 | 819.65 | 22.6 | 0.861
303.15 K, x2 = 0.65 | 814.69 | 22.3 | 0.905
303.15 K, x2 = 0.6999 | 809.62 | 22 | 0.958
303.15 K, x2 = 0.7499 | 804.47 | 21.7 | 1.021
303.15 K, x2 = 0.8001 | 799.17 | 21.4 | 1.108
303.15 K, x2 = 0.85 | 793.77 | 21.2 | 1.214
303.15 K, x2 = 0.8998 | 788.25 | 20.9 | 1.356
303.15 K, x2 = 0.9499 | 782.59 | 20.6 | 1.533
313.15 K, x2 = 0 | 863.76 | 25.1 | 0.658
313.15 K, x2 = 0.05 | 859.32 | 24.9 | 0.645
313.15 K, x2 = 0.1 | 854.97 | 24.6 | 0.639
313.15 K, x2 = 0.1501 | 850.64 | 24.3 | 0.634
313.15 K, x2 = 0.2 | 846.27 | 24.1 | 0.633
313.15 K, x2 = 0.2499 | 841.92 | 23.8 | 0.635
313.15 K, x2 = 0.2997 | 837.55 | 23.5 | 0.638
313.15 K, x2 = 0.3499 | 833.09 | 23.2 | 0.646
313.15 K, x2 = 0.4 | 828.58 | 22.9 | 0.656
313.15 K, x2 = 0.4504 | 823.98 | 22.6 | 0.667
313.15 K, x2 = 0.5001 | 819.37 | 22.3 | 0.682
313.15 K, x2 = 0.55 | 814.68 | 22 | 0.704
313.15 K, x2 = 0.5999 | 809.9 | 21.7 | 0.725
313.15 K, x2 = 0.65 | 805.04 | 21.4 | 0.758
313.15 K, x2 = 0.7001 | 800.07 | 21.1 | 0.796
313.15 K, x2 = 0.7502 | 794.95 | 20.8 | 0.844
313.15 K, x2 = 0.7999 | 789.8 | 20.6 | 0.901
313.15 K, x2 = 0.85 | 784.49 | 20.3 | 0.976
313.15 K, x2 = 0.8998 | 779.1 | 20.1 | 1.069
313.15 K, x2 = 0.9498 | 773.58 | 19.8 | 1.187
323.15 K, x2 = 0 | 666.8 | 23.8 | 0.565
323.15 K, x2 = 0.05 | – | 23.5 | 0.562
323.15 K, x2 = 0.0501 | 667.65 | – | –
323.15 K, x2 = 0.1 | 669.08 | 23.3 | 0.558
323.15 K, x2 = 0.15 | 670.98 | – | –
323.15 K, x2 = 0.1501 | – | 23.1 | 0.553
323.15 K, x2 = 0.1998 | 673.08 | – | –
323.15 K, x2 = 0.2 | – | 22.8 | 0.55
323.15 K, x2 = 0.2499 | – | 22.6 | 0.55
323.15 K, x2 = 0.25 | 675.42 | – | –
323.15 K, x2 = 0.2997 | – | 22.3 | 0.553
323.15 K, x2 = 0.3 | 677.99 | – | –
323.15 K, x2 = 0.3499 | – | 22 | 0.557
323.15 K, x2 = 0.35 | 680.86 | – | –
323.15 K, x2 = 0.4 | 683.93 | 21.8 | 0.563
323.15 K, x2 = 0.4499 | 687.34 | – | –
323.15 K, x2 = 0.4504 | – | 21.5 | 0.571
323.15 K, x2 = 0.5 | 691.07 | – | –
323.15 K, x2 = 0.5001 | – | 21.2 | 0.582
323.15 K, x2 = 0.5501 | 695.17 | 20.9 | 0.596
323.15 K, x2 = 0.6 | 699.74 | 20.7 | 0.615
323.15 K, x2 = 0.65 | 704.78 | 20.4 | 0.635
323.15 K, x2 = 0.6999 | – | 20.1 | 0.661
323.15 K, x2 = 0.7 | 710.22 | – | –
323.15 K, x2 = 0.7499 | 716.22 | – | –
323.15 K, x2 = 0.7502 | – | 19.9 | 0.697
323.15 K, x2 = 0.7999 | 722.88 | – | –
323.15 K, x2 = 0.8002 | – | 19.6 | 0.739
323.15 K, x2 = 0.85 | 730.48 | – | –
323.15 K, x2 = 0.8501 | – | 19.4 | 0.79
323.15 K, x2 = 0.8998 | – | 19.2 | 0.85
323.15 K, x2 = 0.9 | 738.82 | – | –
323.15 K, x2 = 0.95 | 748.16 | – | –
323.15 K, x2 = 0.9501 | – | 19 | 0.927
